Data on four compounds can be found in ChEMBL document CHEMBL1649238, “Natural polymorphisms of human immunodeficiency virus type 1 integrase and inherent susceptibilities to a panel of integrase inhibitors” (2009).

Common to all, as to type: functional
Assay [1] has as its system Human immunodeficiency virus 1. Description: Antiviral activity against HIV1 F-15 harboring integrase D10E, K42T, A124N, T125A, V126L, M154L, V201I, T206S, N232D, V281S mutant gene infected in human TZM-bl cells assessed as beta-galactosidase expression after 48 hrs by microplate luminometry relative to HIV1 R7/3 expressing wild type integrase enzyme.
In assay [2] the test system is Human immunodeficiency virus 1. Description: Antiviral activity against HIV1 B-28 harboring integrase D10E, R20K, S39C, V72I, A124N, T125V, V201I, N232D mutant gene infected in human TZM-bl cells assessed as beta-galactosidase expression after 48 hrs by microplate luminometry relative to HIV1 R7/3 expressing wild type integrase enzyme.
Assay [3] has as its system Human immunodeficiency virus 1. Description: Antiviral activity against HIV1 G-8 harboring integrase D10E, L101I, S119T, A124T, M154L, V201I, N232D, S283G mutant gene infected in human TZM-bl cells assessed as beta-galactosidase expression after 48 hrs by microplate luminometry relative to HIV1 R7/3 expressing wild type integrase enzyme.
Assay [4] deals with Human immunodeficiency virus 1. Briefly: Antiviral activity against HIV1 R-6 harboring integrase D10E, E11D, S17N, A23V, L28I, P30A, V72I, L101I, S119T, T122I, A124T, V201I, N222D, N232D, S230G, D253E, N254G mutant gene infected in human TZM-bl cells assessed as beta-galactosidase expression after 48 hrs by microplate luminometry relative to HIV1 R7/3 expressing wild type integrase enzyme.

Assay [5] deals with Human immunodeficiency virus 1. Description: Antiviral activity against HIV1 A-6 harboring integrase D10E, V72I, A124T, M154I, R199K, V201I, N232D mutant gene infected in human TZM-bl cells assessed as beta-galactosidase expression after 48 hrs by microplate luminometry relative to HIV1 R7/3 expressing wild type integrase enzyme.
The test system of assay [6] is Human immunodeficiency virus 1. Briefly: Antiviral activity against HIV1 N-19 harboring integrase D10E, E11D, D25E, V31I, I113V, S119G, A124N, V151I, V201I, N232D mutant gene infected in human TZM-bl cells assessed as beta-galactosidase expression after 48 hrs by microplate luminometry relative to HIV1 R7/3 expressing wild type integrase enzyme.
The subject of assay [7] is Human immunodeficiency virus 1. Description: Antiviral activity against HIV1 B-27 harboring integrase D10E, R20K, S39C, V72I, A124N, T125M, V201I, N232D mutant gene infected in human TZM-bl cells assessed as beta-galactosidase expression after 48 hrs by microplate luminometry relative to HIV1 R7/3 expressing wild type integrase enzyme.
Assay [8] relates to Human immunodeficiency virus 1. Briefly: Antiviral activity against HIV1 G-4 harboring integrase K7R, D10E, S39C, L74I, K156R, K215N, T218I, N232D, L234I mutant gene infected in human TZM-bl cells assessed as beta-galactosidase expression after 48 hrs by microplate luminometry relative to HIV1 R7/3 expressing wild type integrase enzyme.
Assay [9] relates to Human immunodeficiency virus 1. Briefly: Antiviral activity against HIV1 harboring integrase N155H mutant infected in human TZM-bl cells assessed as beta-galactosidase expression after 48 hrs by microplate luminometry relative to HIV1 R7/3 expressing wild type integrase enzyme relative to HIV1 R7/3 expressing wild type integrase enzyme.
The subject of assay [10] is Human immunodeficiency virus 1. Briefly: Antiviral activity against HIV1 harboring integrase T97A mutant infected in human TZM-bl cells assessed as beta-galactosidase expression after 48 hrs by microplate luminometry relative to HIV1 R7/3 expressing wild type integrase enzyme relative to HIV1 R7/3 expressing wild type integrase enzyme.
The subject of assay [11] is Human immunodeficiency virus 1. Briefly: Antiviral activity against HIV1 K-2 harboring integrase D10E, R20K, I113V, A124T, K188R, V201I, T206S, N232D, D278G mutant gene infected in human TZM-bl cells assessed as beta-galactosidase expression after 48 hrs by microplate luminometry relative to HIV1 R7/3 expressing wild type integrase enzyme.
Assay [12] has as its system Human immunodeficiency virus 1. Description: Antiviral activity against HIV1 R-31 harboring integrase D10E, E11D, V32I, V37I, V72I, L101I, T112I, A124N, T125A, K173R, A205S, Q216H, N222K, S230N, N232D mutant gene infected in human TZM-bl cells assessed as beta-galactosidase expression after 48 hrs by microplate luminometry relative to HIV1 R7/3 expressing wild type integrase enzyme.

In the case of `O=C(NCc1ccc(F)cc1)c1nc(N2CCCCS2(=O)=O)c2cccnc2c1O`, the “Ratio EC50” value in assay [1] was found to be 0.505; in assay [2] it was 0.973; in [3], 0.488; in assay [4] it was 1.175; in assay [5] it was 0.863; in assay [6], 1.416. Also, the “Ratio EC50” value was found to be 1.306 in [7]; 1.3 in assay [8]; 12.647 in assay [9]; 6.067 in [10]; 0.468 in assay [11]; 1.268 in assay [12].
As to `CN(C)C(=O)C(=O)N(C)c1nc(C(=O)NCc2ccc(F)cc2)c(O)c2ncccc12`, the “Ratio EC50” value in assay [1] was found to be 0.33; in [2], 0.673; in assay [3], 0.515; in assay [4], 0.412; in [5], 0.836; in assay [6], 0.927. Further, the “Ratio EC50” value in [7] is reported as 0.966; in [8], 0.643; in assay [9] it was 2.692; in [10], 3.767; in assay [11], 0.461; in [12], 1.589.
As for `CN(C)C(=O)C(=O)NC(C)(C)c1nc(C(=O)NCc2ccc(F)cc2)c(O)c(=O)n1C`, the “Ratio EC50” value in assay [1] is listed as 0.329; in assay [2], 0.766; in assay [3], 0.286; in assay [4], 0.644; in [5], 0.946; in assay [6] it was 0.998. For the same compound, the “Ratio EC50” value in assay [7] was found to be 0.592; in assay [8] it was 0.847; in assay [9] it was 0.78; in assay [10] it was 2; in assay [11], 0.394; in assay [12], 1.005.
Turning to `CNC(=O)c1cc(F)ccc1CNC(=O)c1nc(N2CCCCS2(=O)=O)c2cccnc2c1O`, the “Ratio EC50” value is given as 0.656 in assay [1]; 0.767 in assay [2]; 0.425 in assay [3]; 1.067 in assay [4]; 0.5 in assay [5]; 0.456 in assay [6]. Besides, the “Ratio EC50” value is given as 0.627 in assay [7]; 0.565 in assay [8]; 4.295 in [9]; 0.865 in assay [10]; 0.448 in assay [11]; 0.995 in [12].
